Laboratory results from paper PMC5250654 (Clinical Drug Investigation, 2016).
Entries after “also recorded” stand apart in the source; their conditions may differ. Where two headings read alike, the source gives them in different places.

What was measured:
[1] = for C trough: Day 7 (steady state), mean (%CV)
[2] = biological target: uridine 5′-diphospho-glucuronosyltransferase (UGT) 1A1; details: read-out: UGT1A1 inhibition IC50; in vitro; cited from earlier work
clinical [3] = details: human, in vivo, po
clinical [4] = details: human, in vivo; for Tmax: t max; for Tmax / half-life: fasted; for half-life: t ½
[5] = test system: relapsed or refractory CLL; details: 800 mg twice-daily oral, relapsed or refractory CLL (n = 41), cited from earlier work
[6] = test system: anti-immunoglobulin E-stimulated CD63 expression on basophils; experiment: CD63 assay: ex vivo anti-IgE-stimulated CD63 expression on whole-blood basophils; assay type: cell-based, human
[7] = fed vs fasted, dose-dependent
[8] = Safety and tolerability, FIH study; assay type: in vivo, human
[9] = Aqueous solubility of mono-mesylate salt; assay type: physicochemical
[10] = Safety and tolerability, fed studies; assay type: in vivo, human; details: n = 40
B cell malignancies = details: 200 or 250 mg twice daily, cited from earlier work
[11] = po, 200 mg, Day 7 (steady state), 200 mg twice daily oral, median (interquartile range)
[12] = po, 600 mg, Day 7 (steady state), 600 mg twice daily oral, median (interquartile range)
[13] = po, 1200 mg, Day 7 (steady state), 1200 mg twice daily oral, median (interquartile range)
[14] = FIH study (fasted), multiple dose, n = 56
[15] = FIH study (fasted), single dose, n = 40

## c1cn2cc(-c3ccc4cn[nH]c4c3)nc(Nc3ccc(N4CCOCC4)cc3)c2n1 [entospletinib, Entospletinib]
[1]; 7 days of twice-daily dosing, fasted
  increase in exposure (C max and AUC) on day 7 compared with day 1: 2- to 4 fold
[1]; 25 mg twice daily oral, fasted
  C trough: 11.9 (64.5) ng/mL
[1]; 75 mg twice daily oral, fasted
  C trough: 79.2 (64.0) ng/mL
[1]; 200 mg twice daily oral, fasted
  C trough: 380 (63.3) ng/mL
[1]; 600 mg twice daily oral, fasted
  C trough: 1242 (65.6) ng/mL
[1]; 900 mg twice daily oral, fasted
  C trough: 1473 (67.2) ng/mL
[1]; 1200 mg twice daily oral, fasted
  C trough: 1471 (79.6) ng/mL
[1]; doses of 600 mg twice daily or higher
  steady-state C trough levels: > 1200 ng/mL
[1]; single and multiple oral administration, fasted
  terminal t ½: 9 h
[2]
  IC50: ~2500 nM
Clinical [3]
  half-life: ~9 h
Clinical [3]; 25 mg
  AUC(0-inf): 231 ng·h/mL
  Cmax: 42.3 ng/mL
  Tmax: 2 h
  half-life: 6.77 h
Clinical [3]; 75 mg
  AUC(0-inf): 413 ng·h/mL
  Cmax: 67.8 ng/mL
  Tmax: 2.75 h
  half-life: 5.31 h
Clinical [3]; 200 mg
  AUC(0-inf): 4250 ng·h/mL
  Cmax: 534 ng/mL
  Tmax: 2 h
  half-life: 9.51 h
Clinical [3]; 600 mg
  Cmax: 779 ng/mL
  Tmax: 2 h
  half-life: 7.72 h
Clinical [3]; 1200 mg
  AUC(0-inf): 9740 ng·h/mL
  Cmax: 1060 ng/mL
  Tmax: 3.25 h
  half-life: 9.59 h
Clinical [4]; [11]
  Tmax: 2.27 h
  half-life: 10 h
Clinical [4]; [12]
  Tmax: 2.25 h
  half-life: 15.4 h
Clinical [4]; po, 900 mg
  AUC(0-t): 5860 ng·h/mL
Clinical [4]; [13]
  Tmax: 2.75 h
  half-life: 13.9 h
Clinical [4]; doses ≤200 mg twice daily
  half-life: ~9 h
[5]; at 24 weeks
  progression-free survival (PFS) rate: 70.1%
[5]
  median PFS: 13.8 months
[6]; doses ≥600 mg twice daily, 12 h post-dose
  inhibition of CD63 expression maintained at C trough: ≥ 63%
[6]; doses ≥600 mg twice daily, peak at 2–4 h post-dose
  maximal mean inhibition of CD63 expression: ≥ 86%
[6]; plasma concentration–response, percentage of baseline
  EC50 for inhibition of CD63: 0.429 µg/mL
[7]
  reduction in AUC under fed conditions: 20–80%
  reduction in C max under fed conditions: 20–70%
[8]; FIH and fed studies
  severity of adverse events: mild to moderate; also recorded: mild or moderate
[8]; FIH study
  discontinuations due to treatment-related AEs: no AE-driven study drug discontinuations
[8]; [14]
  Laboratory abnormality Grade ≥3: ALT: 1 (1.8) n (%)
  Laboratory abnormality Grade ≥3: AST: 1 (1.8) n (%)
  Laboratory abnormality Grade ≥3: Total bilirubin: 1 (1.8) n (%)
  Treatment-related AE: Headache: 18 (32.1) n (%)
  Treatment-related AE: Oropharyngeal pain: 6 (10.7) n (%)
  Treatment-related AE: Rhinorrhea: 7 (12.5) n (%)
[8]; [15]
  Laboratory abnormality Grade ≥3: Creatinine kinase: 1 (2.5) n (%)
  Treatment-related AE: Headache: 5 (12.5) n (%)
  Treatment-related AE: Nausea: 6 (10.7) n (%)
[8]; single or multiple oral doses, healthy adults
  tolerability: generally well-tolerated; also recorded: When administered in single or multiple oral doses in healthy adults, entospletinib monotherapy is generally well-tolerated
[9]; aqueous buffer, pH 2
  solubility: 3000 µg/mL
[9]; aqueous medium
  solubility: < 1 µg/mL
[10]
  Treatment-related AE: Headache: 10 (25.0) n (%)
  Treatment-related AE: Oropharyngeal pain: 5 (12.5) n (%)
  Treatment-related AE: Urinary tract infection: 1 (2.5) n (%)

## COc1cc(Nc2ncc(F)c(Nc3ccc4c(n3)N(COP(=O)(O)O)C(=O)C(C)(C)O4)n2)cc(OC)c1OC [fostamatinib]
B cell malignancies; CLL/small lymphocyte leukemia
  overall response rate (ORR): 55%
B cell malignancies; DLBCL
  overall response rate (ORR): 22%
B cell malignancies; FL
  overall response rate (ORR): 10%
B cell malignancies; MCL
  overall response rate (ORR): 11%
